System: LXRα and/or LXRβ
Assay: LXR/LXRE co-transfection assay (luciferase reporter, CV-1 cells)
Assay type: cell-based, human
Conditions: IC50 or EC50 for LXR (LXRα and/or LXRβ, not distinguished), tested as described in Example 109, CV-1 cells
Summary of the method: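 Transient co-transfection of CV-1 cells with full-length human LXRα or LXRβ plus RXRα expression plasmids and an LXREx1-Tk-luciferase reporter; compounds (10 μM screen, ≤1% DMSO) incubated 20 h at 37 °C. Luminescence read after lysis; EC50/IC50 from 8-point half-log curves, efficacy relative to a high control or DMSO.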

In the case of CC(C)(O)c1cc(-c2ccc(-c3cccc(S(C)(=O)=O)c3)cc2)n(Cc2cccc(Cl)c2Cl)n1 [Example 1400, 2-(1-(2,3-dichlorobenzyl)-5-(3′-(methylsulfonyl)biphenyl-4-yl)-1H-pyrazol-3-yl)propan-2-ol], the EC50 is reported as less than 1000 nM.

In the case of CS(=O)(=O)c1cccc(-c2ccc(-c3cc(C(=O)NCC(F)(F)F)nn3-c3cccnc3C(F)(F)F)c(Cl)c2)c1 [Example 1401, 5-(3-chloro-3′-(methylsulfonyl)biphenyl-4-yl)-N-(2,2,2-trifluoroethyl)-1-(2-(trifluoromethyl)pyridin-3-yl)-1H-pyrazole-3-carboxamide], the EC50 is reported as less than 1000 nM.

CC(C)(O)c1cc(-c2ccc(-c3cccc(S(C)(=O)=O)c3)cc2Cl)n(Cc2cccc(Cl)c2Cl)n1 [Example 1402, 2-(5-(3-chloro-3′-(methylsulfonyl)biphenyl-4-yl)-1-(2,3-dichlorobenzyl)-1H-pyrazol-3-yl)propan-2-ol] was tested, and the EC50 was less than 1000 nM.

CS(=O)(=O)c1cccc(-c2ccc(-c3c(Cl)c(C(=O)NCC(F)(F)F)nn3-c3cccnc3C(F)(F)F)c(Cl)c2)c1 [Example 1403, 4-chloro-5-(3-chloro-3′-(methylsulfonyl)biphenyl-4-yl)-N-(2,2,2-trifluoromethyl)-1-(2-(trifluoromethyl)pyridin-3-yl)-1H-pyrazole-3-carboxamide] showed an EC50 of less than 1000 nM.

Molecule Cc1cc(NCCN2CCCCC2)ccc1-c1cc(C(C)(C)O)nn1-c1c(Cl)cccc1Cl [Example 1405, 2-(1-(2,6-dichlorophenyl)-5-(2-methyl-4-(2-(piperidin-1-yl)ethylamino)phenyl)-1H-pyrazol-3-yl)propan-2-ol] has an EC50 greater than 10000 nM.

Work on CC(C)(O)c1nn(-c2ccc(-c3cccc(S(C)(=O)=O)c3)cc2Cl)c(-c2c(Cl)cccc2Cl)c1Cl [Example 1414, 2-(4-chloro-1-(3-chloro-3′-(methylsulfonyl)biphenyl-4-yl)-5-(2,6-dichlorophenyl)-1H-pyrazol-3-yl)propan-2-ol] yielded an EC50 of less than 1000 nM.

Cc1cc(-n2nc(C(C)(C)O)cc2-c2c(Cl)cccc2Cl)ccc1-c1cccc(S(C)(=O)=O)c1 [Example 1417, 2-(5-(2,6-dichlorophenyl)-1-(2-methyl-3′-(methylsulfonyl)biphenyl-4-yl)-1H-pyrazol-3-yl)propan-2-ol] showed an EC50 of 1000 to 10000 nM.

Cc1cc(-n2nc(C(C)(C)O)c(Cl)c2-c2c(Cl)cccc2Cl)ccc1-c1cccc(S(C)(=O)=O)c1 [Example 1419, 2-(4-chloro-5-(2,6-dichlorophenyl)-1-(2-methyl-3′-(methylsulfonyl)biphenyl-4-yl)-1H-pyrazol-3-yl)propan-2-ol] was tested, and the EC50 was 1000 to 10000 nM.

With Cc1cc(-c2cccc(S(C)(=O)=O)c2)ccc1-n1nc(C(C)(C)O)c(Cl)c1-c1ccccc1C(F)(F)F [Example 1420, 2-(4-chloro-1-(3-methyl-3′-(methylsulfonyl)biphenyl-4-yl)-5-(2-(trifluoromethyl)phenyl)-1H-pyrazol-3-yl)propan-2-ol] the EC50 was less than 1000 nM.

CC(C)(O)c1nn(-c2ccc(-c3cccc(S(C)(=O)=O)c3)cc2Cl)c(-c2ccccc2C(F)(F)F)c1Cl [Example 1421, 2-(4-chloro-1-(3-chloro-3′-(methylsulfonyl)biphenyl-4-yl)-5-(2-(trifluoromethyl)phenyl)-1H-pyrazol-3-yl)propan-2-ol] was tested, and the EC50 was less than 1000 nM.

Work on Cc1cc(-c2cccc(S(C)(=O)=O)c2)ccc1-n1nc(C(C)(C)O)c(Cl)c1-c1ccccc1Cl [Example 1422, 2-(4-chloro-5-(2-chlorophenyol)-1-(3-methyl-3′-(methylsulfonyl)biphenyl-4-yl)-1H-pyrazol-3-yl)propan-2-ol] yielded an EC50 of less than 1000 nM.

CC(C)(O)c1nn(-c2ccc(-c3cccc(S(C)(=O)=O)c3)cc2Cl)c(-c2ccccc2Cl)c1Cl [Example 1423, 2-(4-chloro-1-(3-chloro-3′-(methylsulfonyl)biphenyl-4-yl)-5-(2-chlorophenyl)-1H-pyrazol-3-yl)propan-2-ol] showed an EC50 of less than 1000 nM.

Work on Cc1cc(-c2cccc(S(C)(=O)=O)c2)ccc1-n1nc(C(C)(C)O)c(Cl)c1-c1c(Cl)cccc1Cl [Example 1424, 2-(4-chloro-5-(2,6-dichlorophenyl)-1-(3-methyl-3′-(methylsulfonyl)biphenyl-4-yl)-1H-pyrazol-3-yl)propan-2-ol] yielded an EC50 of less than 1000 nM.

CC(C)(O)c1nn(-c2ccc(-c3cccc(S(C)(=O)=O)c3)cc2Cl)c(-c2cccc(F)c2F)c1Cl [Example 1427, 2-(4-chloro-1-(3-chloro-3′-(methylsulfonyl)biphenyl-4-yl)-5-(2,3-difluorophenyl)-1H-pyrazol-3-yl)propan-2-ol] was tested, and the EC50 was less than 1000 nM.
